# Data taken from PubChem BioAssay AID1919001 (Molecular Pharmacology Branch, DTP, NCI, 2023).
# System: 699152-130-R-J1-PDC complex spheroid growth
# Assay: Anticancer human tumor 699152-130-R-J1-PDC patient-derived pancreatic carcinoma cell line growth inhibition [AhR]
# Details: for IC50: curve of first compound; for viability, T/C: stronger effect = lower value
# In short: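 Agents were dosed in half-log steps down from roughly clinical Cmax, or from 10 microM where Cmax was unknown, alone and with AhR antagonists. Read-out: percent test/control growth of tumor spheroids containing HUVEC and MSC stromal cells.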
# 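Further: compound exposure lasted 7 days after spheroids had grown for 3 days.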
smiles,measurement,setting,value
CC(C)CC(NC(=O)C(Cc1ccccc1)NC(=O)c1cnccn1)B(O)O (stereo not given) + Cc1ccccc1N=Nc1ccc(NC(=O)c2ccnn2C)c(C)c1,IC50,second compound 0.1 µM,15.4 nM
same,IC50,second compound 0.316 µM,15.5 nM
same,IC50,second compound 1 µM,15.4 nM
same,IC50,second compound 3.16 µM,15.1 nM
same,IC50,second compound 10 µM,17.1 nM
same,"viability, T/C","second compound 0.1 µM, first compound 0.000949 µM",86%
same,"viability, T/C","second compound 0.1 µM, first compound 0.003 µM",93%
same,"viability, T/C","second compound 0.1 µM, first compound 0.00949 µM",85.9%
same,"viability, T/C","second compound 0.1 µM, first compound 0.03 µM",1.03%
same,"viability, T/C","second compound 0.1 µM, first compound 0.0949 µM",0.47%
same,"viability, T/C","second compound 0.1 µM, first compound 0.3 µM",0.58%
same,"viability, T/C","second compound 0.316 µM, first compound 0.000949 µM",86%
same,"viability, T/C","second compound 0.316 µM, first compound 0.003 µM",105%
same,"viability, T/C","second compound 0.316 µM, first compound 0.00949 µM",86.9%
same,"viability, T/C","second compound 0.316 µM, first compound 0.03 µM",0.65%
same,"viability, T/C","second compound 0.316 µM, first compound 0.0949 µM",0.35%
same,"viability, T/C","second compound 0.316 µM, first compound 0.3 µM",0.4%
same,"viability, T/C","second compound 1 µM, first compound 0.000949 µM",97.9%
same,"viability, T/C","second compound 1 µM, first compound 0.003 µM",96.8%
same,"viability, T/C","second compound 1 µM, first compound 0.00949 µM",85.3%
same,"viability, T/C","second compound 1 µM, first compound 0.03 µM",0.79%
same,"viability, T/C","second compound 1 µM, first compound 0.0949 µM",0.52%
same,"viability, T/C","second compound 1 µM, first compound 0.3 µM",0.56%
same,"viability, T/C","second compound 3.16 µM, first compound 0.000949 µM",86.4%
same,"viability, T/C","second compound 3.16 µM, first compound 0.003 µM",90.7%
same,"viability, T/C","second compound 3.16 µM, first compound 0.00949 µM",82.9%
same,"viability, T/C","second compound 3.16 µM, first compound 0.03 µM",1.35%
same,"viability, T/C","second compound 3.16 µM, first compound 0.0949 µM",0.62%
same,"viability, T/C","second compound 3.16 µM, first compound 0.3 µM",0.61%
same,"viability, T/C","second compound 10 µM, first compound 0.000949 µM",120%
same,"viability, T/C","second compound 10 µM, first compound 0.003 µM",116%
same,"viability, T/C","second compound 10 µM, first compound 0.00949 µM",98.9%
same,"viability, T/C","second compound 10 µM, first compound 0.03 µM",2.93%
same,"viability, T/C","second compound 10 µM, first compound 0.0949 µM",0.98%
same,"viability, T/C","second compound 10 µM, first compound 0.3 µM",0.8%
COc1cc(Nc2ncc3c(n2)-c2ccc(Cl)cc2C(c2c(F)cccc2OC)=NC3)ccc1C(=O)O + Cc1ccccc1N=Nc1ccc(NC(=O)c2ccnn2C)c(C)c1,IC50,second compound 0.1 µM,> 10000 nM
same,IC50,second compound 0.316 µM,6410 nM
same,IC50,second compound 1 µM,> 10000 nM
same,IC50,second compound 3.16 µM,> 10000 nM
same,IC50,second compound 10 µM,> 10000 nM
same,"viability, T/C","second compound 0.1 µM, first compound 0.0316 µM",89.9%
same,"viability, T/C","second compound 0.1 µM, first compound 0.1 µM",80.2%
same,"viability, T/C","second compound 0.1 µM, first compound 0.316 µM",65.3%
same,"viability, T/C","second compound 0.1 µM, first compound 1 µM",54.5%
same,"viability, T/C","second compound 0.1 µM, first compound 3.16 µM",54.4%
same,"viability, T/C","second compound 0.1 µM, first compound 10 µM",56.6%
same,"viability, T/C","second compound 0.316 µM, first compound 0.0316 µM",83.1%
same,"viability, T/C","second compound 0.316 µM, first compound 0.1 µM",68.7%
same,"viability, T/C","second compound 0.316 µM, first compound 0.316 µM",65.5%
same,"viability, T/C","second compound 0.316 µM, first compound 1 µM",59.5%
same,"viability, T/C","second compound 0.316 µM, first compound 3.16 µM",51.7%
same,"viability, T/C","second compound 0.316 µM, first compound 10 µM",48.4%
same,"viability, T/C","second compound 1 µM, first compound 0.0316 µM",86.8%
same,"viability, T/C","second compound 1 µM, first compound 0.1 µM",71.7%
same,"viability, T/C","second compound 1 µM, first compound 0.316 µM",74.3%
same,"viability, T/C","second compound 1 µM, first compound 1 µM",60.5%
same,"viability, T/C","second compound 1 µM, first compound 3.16 µM",56.9%
same,"viability, T/C","second compound 1 µM, first compound 10 µM",51.7%
same,"viability, T/C","second compound 3.16 µM, first compound 0.0316 µM",86.3%
same,"viability, T/C","second compound 3.16 µM, first compound 0.1 µM",82.6%
same,"viability, T/C","second compound 3.16 µM, first compound 0.316 µM",68.9%
same,"viability, T/C","second compound 3.16 µM, first compound 1 µM",61.1%
same,"viability, T/C","second compound 3.16 µM, first compound 3.16 µM",54.2%
same,"viability, T/C","second compound 3.16 µM, first compound 10 µM",50.1%
same,"viability, T/C","second compound 10 µM, first compound 0.0316 µM",91.7%
same,"viability, T/C","second compound 10 µM, first compound 0.1 µM",94.7%
same,"viability, T/C","second compound 10 µM, first compound 0.316 µM",74.8%
same,"viability, T/C","second compound 10 µM, first compound 1 µM",64.8%
same,"viability, T/C","second compound 10 µM, first compound 3.16 µM",66.8%
same,"viability, T/C","second compound 10 µM, first compound 10 µM",63.6%
